According to patent publication US5532372A, “Imide derivatives, and their production and use” (Sumitomo Pharmaceuticals Company, Ltd., priority 1990, dated 1996):
Like-named read-outs stand apart in the source and are kept apart here.

Columns and labels:
[1] = Catalepsy inducing activity (extrapyramidal side-effect); design: species or system male mice; conditions: mouse, in vivo; oral, one hour later, mice; Table 5
From the text: A designated amount of the test compounds is orally administered to male mice, and one hour later a pair of forepaws are forcedly hanged on an iron pipe (diameter, 2.5 mm) horizontally set at a height of 5 cm. At least one cataleptic state of more than 30 second per three trials is regarded as positive.

[2] = system: mice; assay: Anti-climbing activity (in vivo), climbing behavior induced by apomorphine in mice; design: species or system mice (ddY strain male); conditions: Mus musculus, 1 h, read-out: ED50 (50% suppressive dose) of climbing behavior
From the text: (ii) Anti-climbing activity (in vivo)
This activity is examined through the anti-climbing behavior test, i.e. the test for suppressing the climbing behavior induced by apomorphine in mice.
A designed amount of the test compound is orally administered to several groups of ddY strain male mice (bodyweight, 20 to 25 g; one group, 5 mice), and each of the animals is placed in an individual column cage of 12 cm in diameter and 14 cm in height having metal poles (each pole, 2 mm in diameter) vertically installed and arranged along the periphery with intervals of 1 cm. After 60 minutes, apomorphine (1.0 mg/kg) is subcutaneously injected, and the behavior is observed during 10 to 20 minutes.
0 All the paws are on the floor
1 only forepaws seize the pole of the cage
2 All the paws seize the pole of the cage;
climbing behavior observed discontinuously
3 Continuous climbing behavior observed

[3] = biological target: T1, dopamine D2 receptor (Rattus norvegicus, UniProt P61169); assay: Dopamine D2 receptor binding assay (in vitro), [3H] raclopride; conditions: at the concentration of 0.01 μM; Table 3; read-out: Antipsychotic activity (% inhibition), inhibition of [3H] raclopride binding to D2 receptors
T1 construct: from tissue; host or cells: rat corpus striatum, membrane fractions

[4] = in vivo; conditions: mouse, po
[5] = oral, 60 minutes before apomorphine (1.0 mg/kg s.c.), mice, Table 4

T1 sequence (P61169 whole entry): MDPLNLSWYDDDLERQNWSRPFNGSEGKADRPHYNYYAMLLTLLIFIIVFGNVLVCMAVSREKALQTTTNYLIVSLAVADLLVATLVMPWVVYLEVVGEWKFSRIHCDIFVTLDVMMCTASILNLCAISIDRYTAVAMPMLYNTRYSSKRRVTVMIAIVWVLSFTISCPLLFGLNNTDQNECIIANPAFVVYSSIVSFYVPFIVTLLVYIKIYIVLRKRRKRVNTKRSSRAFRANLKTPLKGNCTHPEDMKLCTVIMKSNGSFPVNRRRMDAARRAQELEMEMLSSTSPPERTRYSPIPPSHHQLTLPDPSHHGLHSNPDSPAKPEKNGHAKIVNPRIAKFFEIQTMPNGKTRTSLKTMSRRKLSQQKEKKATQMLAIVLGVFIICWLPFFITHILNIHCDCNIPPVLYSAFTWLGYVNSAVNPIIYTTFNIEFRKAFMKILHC

| inhibition at 0.01 µM [3] [%] | SMILES | ED50 at 1 h [1] [mg/kg] | ED50 ([2]; po) [mg/kg] | ED50 at 1 h [4] [mg/kg] | ED50 [2, 5] [mg/kg] |
| --- | --- | --- | --- | --- | --- |
|  | CN(C)CCCN1c2ccccc2Sc2ccc(Cl)cc21 [Chlorpromazine, reference compound] | 18 | 4.2 |  |  |
| 11 | O=C1[C@@H]2[C@H]3CC[C@H](C3)[C@@H]2C(=O)N1C[C@@H]1C[C@H]1CN1CCN(c2ncccn2)CC1 (relative stereo) [compound 163] |  |  |  |  |
|  | O=C1[C@@H]2[C@H]3CC[C@H](C3)[C@@H]2C(=O)N1C[C@@H]1CCCC[C@H]1CN1CCN(c2nsc3ccccc23)CC1 (relative stereo) [Compound No. 101] | 747 |  | > 1000 | 10.3 |
|  | O=C(CCCN1CCC(O)(c2ccc(Cl)cc2)CC1)c1ccc(F)cc1 [Haloperidol, reference compound] | 3.1 |  | 4.1 | 0.67 |
| 90 | O=C1[C@@H]2[C@H]3CC[C@H](C3)[C@@H]2C(=O)N1C1CCCC(CN2CCN(c3nsc4ccccc34)CC2)C1 (stereo partly shown) [Compound No. 106] |  |  |  |  |
| 71 | O=C1[C@H]2CCCC[C@H]2C(=O)N1C[C@@H]1C[C@H]1CN1CCN(c2nsc3ccccc23)CC1 (relative stereo) [Compound No. 107] |  |  |  | 26.5 |
| 24 | O=C(c1ccc(F)cc1)C1CCN(C[C@@H]2C[C@H]2CN2C(=O)[C@H]3CCCC[C@H]3C2=O)CC1 (relative stereo) [compound 161] |  |  |  |  |
